Measured values published in patent US10597388B2, “Pyridazinone herbicides” (FMC CORPORATION, priority 2014, dated 2020).

How the values were obtained:
Type in all cases: in vivo
[1] = tested on: blackgrass (Alopecurus myosuroides); test: Test C greenhouse herbicide test, pre- and postemergence
Procedure, shortened: (§1)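 Preemergence: seeds sown in a loam soil–sand blend and sprayed with test chemicals in a non-phytotoxic solvent mixture containing surfactant. Postemergence: plants grown in peat-based medium and treated at 2 to 18 cm (1- to 4-leaf stage). After 13 to 15 d in a greenhouse, injury was visually rated 0–100 against controls.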

[2] = tested on: ryegrass, Italian (Italian ryegrass, Lolium multiflorum); test: as above
Procedure, shortened: as §1

[3] = tested on: barnyardgrass (Echinochloa crus-galli); test: as above
Procedure, shortened: as §1

corn (Zea mays) = test: as above
Procedure, shortened: as §1

[4] = tested on: velvetleaf (Abutilon theophrasti); test: as above
Procedure, shortened: as §1

[5] = tested on: nutsedge, yellow (yellow nutsedge, Cyperus esculentus); test: as above
Procedure, shortened: as §1

soybean (Glycine max) = test: as above
Procedure, shortened: as §1

[6] = tested on: johnsongrass (Sorghum halepense); test: as above
Procedure, shortened: as §1

[7] = tested on: galium (catchweed bedstraw, Galium aparine); test: as above
Procedure, shortened: as §1

[8] = tested on: wheat (winter wheat, Triticum aestivum); test: as above
Procedure, shortened: as §1

[9] = tested on: crabgrass, large (large crabgrass, Digitaria sanguinalis); test: as above
Procedure, shortened: as §1

[10] = tested on: foxtail, giant (giant foxtail, Setaria faberii); test: as above
Procedure, shortened: as §1

[11] = tested on: waterhemp_RES2 (ALS & HPPD resistant common waterhemp, Amaranthus rudis); test: Test E greenhouse herbicide test, postemergence
Procedure, shortened: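 Postemergence spray on potted plants, 1–4 leaves, 2–18 cm; greenhouse 14–21 d; visual rating vs controls, 0 (no effect) to 100 (complete control).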

[12] = Postemergence, 31 g ai/ha, 0 to 100 scale (0 no effect, 100 complete control)
[13] = Postemergence, 125 g ai/ha, scale 0 to 100, 0 is no effect, 100 is complete control
[14] = Postemergence, 250 g ai/ha, scale 0 to 100, 0 no effect, 100 complete control, 13 to 15 d
[15] = Preemergence, 31 g ai/ha, scale 0 to 100, 0 is no effect, 100 is complete control
[16] = Preemergence, 62 g ai/ha, scale 0 to 100, 0 is no effect, 100 is complete control
[17] = Preemergence, 125 g ai/ha, scale 0 to 100, 0 is no effect, 100 is complete control
[18] = Preemergence, 250 g ai/ha, scale 0 to 100, 0 no effect, 100 complete control
[19] = postemergence, 62 g ai/ha, scale 0 to 100, 0 no effect, 100 complete control

## Cc1nn(C)c(=O)c(-c2ccc(F)c3ccccc23)c1O [Compound 41]
[1]; [12]
  Blackgrass plant response rating: 30
[1]; [13]
  Plant response rating, Blackgrass: 50
[1]; [14]
  Plant response rating, Blackgrass: 60
[1]; [15]
  Plant response rating, Blackgrass: 70
[1]; [16]
  Plant response rating, Blackgrass: 80
[1]; [17]
  Plant response rating, Blackgrass: 85
[1]; [18]
  Blackgrass plant response rating: 90
[1]; [19]
  Blackgrass plant response rating: 35
[2]; [12]
  Ryegrass, Italian plant response rating: 80
[2]; [13]
  Plant response rating, Ryegrass, Italian: 90
[2]; [14]
  Plant response rating, Ryegrass, Italian: 90
[2]; [15]
  Plant response rating, Ryegrass, Italian: 95
[2]; [16]
  Plant response rating, Ryegrass, Italian: 95
[2]; [17]
  Plant response rating, Ryegrass, Italian: 95
[2]; [18]
  Ryegrass, Italian plant response rating: 95
[2]; [19]
  Ryegrass, Italian plant response rating: 90
[3]; [12]
  Barnyardgrass plant response rating: 25
[3]; [13]
  Plant response rating, Barnyardgrass: 40
[3]; [14]
  Plant response rating, Barnyardgrass: 60
[3]; [15]
  Plant response rating, Barnyardgrass: 10
[3]; [16]
  Plant response rating, Barnyardgrass: 40
[3]; [17]
  Plant response rating, Barnyardgrass: 85
[3]; [18]
  Barnyardgrass plant response rating: 95
[3]; [19]
  Barnyardgrass plant response rating: 35
Corn (Zea mays); [12]
  Corn plant response rating: 5
Corn (Zea mays); [13]
  Plant response rating, Corn: 10
Corn (Zea mays); [14]
  Plant response rating, Corn: 20
Corn (Zea mays); [15]
  Plant response rating, Corn: 0
Corn (Zea mays); [16]
  Plant response rating, Corn: 0
Corn (Zea mays); [17]
  Plant response rating, Corn: 5
Corn (Zea mays); [18]
  Corn plant response rating: 40
Corn (Zea mays); [19]
  Corn plant response rating: 5
[4]; [12]
  Velvetleaf plant response rating: 30
[4]; [13]
  Plant response rating, Velvetleaf: 85
[4]; [14]
  Plant response rating, Velvetleaf: 90
[4]; [15]
  Plant response rating, Velvetleaf: 85
[4]; [16]
  Plant response rating, Velvetleaf: 90
[4]; [17]
  Plant response rating, Velvetleaf: 95
[4]; [18]
  Velvetleaf plant response rating: 98
[4]; [19]
  Velvetleaf plant response rating: 65
[5]; [12]
  Nutsedge, Yellow plant response rating: 65
[5]; [13]
  Plant response rating, Nutsedge, Yellow: 65
[5]; [14]
  Plant response rating, Nutsedge, Yellow: 80
[5]; [15]
  Plant response rating, Nutsedge, Yellow: 60
[5]; [16]
  Plant response rating, Nutsedge, Yellow: 75
[5]; [17]
  Plant response rating, Nutsedge, Yellow: 75
[5]; [18]
  Nutsedge, Yellow plant response rating: 80
[5]; [19]
  Nutsedge, Yellow plant response rating: 65
Soybean (Glycine max); [12]
  Soybean plant response rating: 15
Soybean (Glycine max); [13]
  Plant response rating, Soybean: 20
Soybean (Glycine max); [14]
  Plant response rating, Soybean: 15
Soybean (Glycine max); [15]
  Plant response rating, Soybean: 0
Soybean (Glycine max); [16]
  Plant response rating, Soybean: 20
Soybean (Glycine max); [17]
  Plant response rating, Soybean: 50
Soybean (Glycine max); [18]
  Soybean plant response rating: 55
Soybean (Glycine max); [19]
  Soybean plant response rating: 15
[6]; [12]
  Johnsongrass plant response rating: 5
[6]; [13]
  Plant response rating, Johnsongrass: 10
[6]; [14]
  Plant response rating, Johnsongrass: 35
[6]; [15]
  Plant response rating, Johnsongrass: 0
[6]; [16]
  Plant response rating, Johnsongrass: 50
[6]; [17]
  Plant response rating, Johnsongrass: 35
[6]; [18]
  Johnsongrass plant response rating: 35
[6]; [19]
  Johnsongrass plant response rating: 10
[7]; [12]
  Galium plant response rating: 100
[7]; [13]
  Plant response rating, Galium: 100
[7]; [14]
  Plant response rating, Galium: 100
[7]; [15]
  Plant response rating, Galium: 90
[7]; [16]
  Plant response rating, Galium: 100
[7]; [17]
  Plant response rating, Galium: 98
[7]; [18]
  Galium plant response rating: 98
[7]; [19]
  Galium plant response rating: 100
[8]; [12]
  Wheat plant response rating: 10
[8]; [13]
  Plant response rating, Wheat: 30
[8]; [14]
  Plant response rating, Wheat: 5
[8]; [15]
  Plant response rating, Wheat: 0
[8]; [16]
  Plant response rating, Wheat: 5
[8]; [17]
  Plant response rating, Wheat: 50
[8]; [18]
  Wheat plant response rating: 65
[8]; [19]
  Wheat plant response rating: 0
[9]; [12]
  Crabgrass, Large plant response rating: 5
[9]; [13]
  Plant response rating, Crabgrass, Large: 25
[9]; [14]
  Plant response rating, Crabgrass, Large: 35
[9]; [15]
  Plant response rating, Crabgrass, Large: 30
[9]; [16]
  Plant response rating, Crabgrass, Large: 35
[9]; [17]
  Plant response rating, Crabgrass, Large: 65
[9]; [18]
  Crabgrass, Large plant response rating: 70
[9]; [19]
  Crabgrass, Large plant response rating: 10
[10]; [12]
  Foxtail, Giant plant response rating: 15
[10]; [13]
  Plant response rating, Foxtail, Giant: 30
[10]; [14]
  Plant response rating, Foxtail, Giant: 65
[10]; [15]
  Plant response rating, Foxtail, Giant: 45
[10]; [16]
  Plant response rating, Foxtail, Giant: 80
[10]; [17]
  Plant response rating, Foxtail, Giant: 85
[10]; [18]
  Foxtail, Giant plant response rating: 85
[10]; [19]
  Foxtail, Giant plant response rating: 15
[11]; 31 g ai/ha, visual, scale 0 no effect to 100 complete control
  Plant response rating, Waterhemp_RES2: 20
[11]; 62 g ai/ha, scale 0 to 100 (0 no effect, 100 complete control)
  Plant response rating, Waterhemp_RES2: 80
[11]; 125 g ai/ha, scale 0 to 100 (0 no effect, 100 complete control)
  Plant response rating, Waterhemp_RES2: 80
[11]; 250 g ai/ha, scale 0 to 100 (0 no effect, 100 complete control)
  Plant response rating, Waterhemp_RES2: 85
